Reference: patent US9199948B2, “1,3-benzoxazol-2(3H)-ones and their use as medicaments and cosmetics” (DR. AUGUST WOLFF GMBH & CO. KG ARZNEIMITTEL, priority 2012, dated 2015)

System: Arachidonoylethanolamide Transport (AEAT) in U937 cells
Assay: Cellular uptake of [3H]-AEA (inhibition of arachidonoylethanolamide transport, AEAT)
Assay type: cell-based
Conditions: Homo sapiens, U-937, 100 nM AEA, 15 min pre-incubation, 15 min uptake at 37° C.
Protocol: C. Cellular Uptake of [^3H]-AEA
Human lymphoma U937 cells were grown in RPMI 1640 medium (Invitrogen, Basel, Switzerland) supplemented with 10% fetal bovine serum, […] fungizone (amphotericin B), 100 units/ml penicillin, 100 µg/ml streptomycin, and 2 mM L-glutamine (all from Invitrogen) and selected for the cellular AEA uptake assay. 2.5×10^6 cells were collected and suspended in 250 μl of RPMI 1640 medium (Invitrogen, Basel, Switzerland) at 37° C. using glass silanized vials. Cells were pre-incubated 15 min at 37° C. in presence of test compounds in a concentration range of 10^−11−10^−5 M or in presence of the same amount (5 μl) of vehicle control (DMSO). Then a mixture of 0.5 nM [^3H]-AEA (60 Ci/mmol) (American Radiolabeled Chemicals, Inc., San Louis, Mo., US) and 99.5 nM of nonradioactive AEA (Tocris Cookson Ltd., Bristol, UK) resulting in a final concentration of 100 nM AEA was added and samples were incubated at 37° C. for another 15 minutes. […] Radioactivity was measured using a Perkin Elmer 1450 Microbeta TRILUX liquid scintillation counter. Results were expressed as % of AEA uptake versus cells treated with solvent and the EC50 and IC50 values were calculated from the sigmoidal curves, which were generated using the GraphPad Prism 5.0 (GraphPad Software, San Diego, Calif., US).

Compound	EC50
CCCCCCC/C=C/C=C/CNC(=O)c1ccc2oc(=O)[nH]c2c1 [Example 4]	146 nM
Cn1c(=O)oc2ccc(NC(=O)/C=C/C=C/CCc3ccccc3)cc21 [Example 10]	112 nM
